What was measured:
[1] = Population PK model (2 compartment, concentration-dependent clearance) for 9-cis-retinol built on the observed clinical data; details: human blood, FIG. 4
Description: FIG. 3 schematically illustrates a 2 compartment PK model used to describe the observed clinical data.
From the observed PK data analyzed, a population PK model for levels of 9-cis-retinol was built. Based on the observed clinical data, a 2 compartment PK model was constructed (FIG. 3). This kinetic model for 9-cis-retinol includes a recirculation feature that maintains 9-cis-retinol levels for long periods of time. Two features of this model include apparent concentration-dependent clearance of 9-cis-retinol from the blood, and apparent zero or close to zero clearance at low concentrations. This accounts for long recirculating levels of 9-cis-retinol, seen in samples consistently at 100 hours, 300 hours and 700 hours post last dose administered.
(§1) Clearance from the blood is rapid above ˜8 nM, but quickly drops to zero or near zero below that level. Steady state levels (from ˜24 hrs post dose) are 4.57 nM (10 mg/m^2 dose, 83 samples), 8.32 nM (40 mg/m^2 dose, 149 samples), and 7.46 nM (5 to 60 mg/m^2, 629 samples).

[2] = Human pharmacokinetics of circulating 9-cis-retinol in blood from completed clinical trials after oral 9-cis-retinyl acetate; format: in vivo
Description: FIG. 2 plots human pharmacokinetic (PK) data for the circulating levels of 9-cis-retinol in the blood from completed clinical trials where 9-cis-retinyl acetate was administered orally.
9-cis-retinyl acetate is the acetate ester of 9-cis-retinol. Acetate esters like 9-cis-retinyl acetate are generally short-lived because they are readily hydrolyzed either at physiological pH or by esterases in the blood and other parts of the body.
Thus, further discussion focuses on 9-cis-retinol.
Collated in FIG. 2 are human PK data that show a Cmax between 4 and 7 hours for 9-cis-retinol independent of initial dose administered. A low steady level of 9-cis-retinol is achieved in ˜24 hours. […] The circulating 9-cis-retinol is observed at similar levels from about 24 hours through at least 700 hours after a single dose.
as §1

SMILES	Concentration above which clearance from the blood is rapid (drops to zero or near zero below) [1] [nM]	Steady state levels (from ~24 hrs post dose) ([2]; 10 mg/m^2 dose, 83 samples) [nM]	Steady state levels (from ~24 hrs post dose) ([2]; 40 mg/m^2 dose, 149 samples) [nM]	Steady state levels (from ~24 hrs post dose) ([2]; 5 to 60 mg/m^2, 629 samples) [nM]	Time through which circulating 9-cis-retinol is observed at similar levels ([2]; human, in vivo)	Cmax (time of) for 9-cis-retinol ([2]; human, in vivo, po) [h]	Time at which a low steady level of 9-cis-retinol is achieved ([2]; human, in vivo, po)	Persistence of 9-cis-retinyl acetate in human blood samples following oral dosing ([2]; human, in vivo, po)
CC1=C(/C=C/C(C)=C\C=C\C(C)=C\CO)C(C)(C)CCC1 [9-cis-retinol]	~8	4.57	8.32	7.46	at least 700 hours	4 to 7	about 24 hours	–
CC(=O)OC/C=C(C)/C=C/C=C(C)\C=C\C1=C(C)CCCC1(C)C [9-cis-retinyl acetate, (2E,4E,6Z,8E)-3,7-dimethyl-9-(2,6,6-trimethylcyclohex-1-en-1-yl)nona-2,4,6,8-tetraen-1-yl acetate]	–	–	–	–	–	–	–	extremely short lived and rapidly hydrolyzed to 9-cis-retinol

From patent US20230321024A1, “METHODS OF TREATING VISUAL DISORDERS USING DAILY LOW DOSING OF A RETINOID COMPOUND” (ELUMINEX BIOSCIENCES (SUZHOU) LIMITED, priority 2020, published 2023)
